Measured values taken from patent US10307404B1, “Ocular formulations for drug-delivery to the posterior segment of the eye” (priority 2013, dated 2019).
Where “and” joins values, the source holds several entries; their conditions need not be identical. Equal entries are not always repeated. Where two headings read alike, the source gives them in different places.

How the values were obtained:
[1] = Ocular toxicology study, twice daily 0.3% ophthalmic gel drop: ocular tissue concentrations, electroretinograms; format: in vivo, Dutch-Belted rabbits; conditions: 0.3% gel drop formulations with and without benzylalkonium chloride
Excerpt: Retinal function was normal in all test article and vehicle treated groups during full-field electroretinograms performed in rabbits.

[2] = Corneal and choroid exposure compared between formulations (topical ocular dosing); format: in vivo, Dutch-belted rabbits
Excerpt: Overall, the combination of decreased corneal exposure and corresponding improved ocular tolerability, while simultaneously maintaining or promoting drug delivery to the posterior segment target tissues, along with improved physicochemical stability, will provide greater benefit to patients compared to the ophthalmic Gel Drop formulation.

[3] = tested on: HUVECs; test: Inhibition of VEGF-stimulated mitogenesis in HUVECs; format: cell-based; conditions: Homo sapiens, HUVEC
[4] = 5-day PK, topical ocular Compound-I in hydroxypropyl-β-cyclodextrin solutions, 30 μL bilateral dose; format: in vivo, Dutch-Belted rabbits; conditions: for Average Concentration, Central Retina: LLOQ = 0.0218 μM
Procedure: All doses were administered with ±1 hour of the scheduled dose time, except on day 1 for Groups 1, 4, and 10. The first dose on day 1 was administered at 12:00 PM, and the second dose (for Groups 1 and 10) was administered approximately 4 hours after. This was due to delayed arrival of formulations. All other dosing for these groups was as scheduled. On day 1, Groups 4-8, and 11-12 received one dose (q.d.) for four (4) days. On days 1 through 4, Groups 1-3, and 9-10 received b.i.d. dosing approximately 8 hours apart for four (4) days.
Ocular sampling occurred one hour following the first daily dose on day 5 for all groups, except Groups 5b and 6b, where ocular sampling occurred 24 hours after the first daily dose on day 4.
Blood samples for plasma collection were obtained just prior to scheduled euthanasia for all animals. […] Cornea, central retina, and central choroid samples from groups 1-12 were assayed. Aqueous humor, peripheral retina, and peripheral choroid samples were not assayed.

[5] = target: KDR (VEGFR-2) (Homo sapiens, UniProt P35968); test: In vitro inhibition of tyrosine kinases; format: biochemical; conditions: 300 nM (170.67 ng/mL)
Chain of KDR (VEGFR-2) (P35968 20-1356): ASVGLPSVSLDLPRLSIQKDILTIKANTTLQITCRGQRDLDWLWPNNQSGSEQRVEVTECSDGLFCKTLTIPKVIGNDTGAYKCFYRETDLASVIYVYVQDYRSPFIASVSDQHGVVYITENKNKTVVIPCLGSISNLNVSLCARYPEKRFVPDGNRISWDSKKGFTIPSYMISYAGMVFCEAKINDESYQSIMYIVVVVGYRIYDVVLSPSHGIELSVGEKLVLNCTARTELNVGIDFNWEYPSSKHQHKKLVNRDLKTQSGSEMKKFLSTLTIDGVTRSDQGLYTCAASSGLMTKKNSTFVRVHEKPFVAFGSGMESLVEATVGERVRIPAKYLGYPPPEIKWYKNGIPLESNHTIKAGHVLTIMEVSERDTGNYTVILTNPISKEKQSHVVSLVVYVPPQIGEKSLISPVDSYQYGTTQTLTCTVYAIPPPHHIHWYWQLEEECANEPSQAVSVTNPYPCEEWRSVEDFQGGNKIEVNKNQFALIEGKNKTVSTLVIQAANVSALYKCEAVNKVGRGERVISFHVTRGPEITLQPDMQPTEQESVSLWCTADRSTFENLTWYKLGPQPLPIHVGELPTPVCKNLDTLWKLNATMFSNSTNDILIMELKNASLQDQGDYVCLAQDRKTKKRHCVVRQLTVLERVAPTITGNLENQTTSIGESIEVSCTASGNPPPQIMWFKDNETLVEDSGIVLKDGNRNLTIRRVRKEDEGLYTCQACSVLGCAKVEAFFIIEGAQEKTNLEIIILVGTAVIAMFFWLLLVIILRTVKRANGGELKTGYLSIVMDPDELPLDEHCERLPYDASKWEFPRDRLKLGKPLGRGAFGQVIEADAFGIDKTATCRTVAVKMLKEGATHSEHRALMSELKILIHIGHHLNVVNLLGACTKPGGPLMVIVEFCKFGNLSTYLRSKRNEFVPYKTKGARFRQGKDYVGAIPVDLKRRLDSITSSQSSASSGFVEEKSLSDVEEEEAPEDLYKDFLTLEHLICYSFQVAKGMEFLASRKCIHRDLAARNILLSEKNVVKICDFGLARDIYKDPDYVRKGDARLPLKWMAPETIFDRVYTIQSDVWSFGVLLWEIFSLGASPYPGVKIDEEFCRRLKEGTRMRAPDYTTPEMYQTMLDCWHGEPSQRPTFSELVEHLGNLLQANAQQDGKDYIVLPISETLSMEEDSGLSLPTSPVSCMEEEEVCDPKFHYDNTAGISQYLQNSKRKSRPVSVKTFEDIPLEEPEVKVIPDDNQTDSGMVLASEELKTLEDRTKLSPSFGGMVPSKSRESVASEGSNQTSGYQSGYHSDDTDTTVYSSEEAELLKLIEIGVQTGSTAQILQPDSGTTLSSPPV

[6] = Solubility; format: physicochemical
[7] = 1- to 5-day PK, topical ocular Compound-I formulations of Table 8A, 30 μL bilateral dose; format: in vivo, Dutch Belted rabbits
Procedure: On day 1, Groups 1, 2, 4-6, 8, 10, 11, 13, 15, and 17 received one dose (q.d.) for either one (1) or four (4) days.
Peripheral retina and peripheral choroid samples were assayed only for Groups 1-8, 12, 14, and 16 per study protocol.

[8] = Ocular toxicology study, twice daily 0.3% Tris-based suspension, 30 days; format: in vivo, Dutch-Belted rabbits
[9] = Group 2 q.d., 1 hr post day 5 morning dose
[10] = Group 2 q.d., 8 hr post day 5 morning dose
[11] = Group 2 q.d., 24 hr post day 5 morning dose
[12] = Group 3 b.i.d., 1 hr post day 5 morning dose
[13] = Group 3 b.i.d., 24 hr post day 5 morning dose
[14] = Group 4 q.d., 1 hr post day 5 morning dose
[15] = Group 5 q.d., 24 hr post day 1 dose
[16] = Group 6 q.d., 1 hr post day 5 morning dose
[17] = Group 6 q.d., 8 hr post day 5 morning dose
[18] = Group 6 q.d., 24 hr post day 5 morning dose
[19] = Group 7 b.i.d., 1 hr post day 5 morning dose
[20] = Group 11 q.d., 24 hr post day 5 morning dose, n = 1

Compound: Cl.NC(=O)c1c(OCc2c(F)cc(Br)cc2F)nsc1NC(=O)NCCCCN1CCCC1 [Compound-I, 3-[(4-bromo-2,6-difluorophenyl)methoxy]-5-[[[[4-(1-pyrrolidinyl)butyl]amino]carbonyl]amino]-4-isothiazolecarboxamide hydrochloride]
- Mean ocular tissue concentration, peripheral retina [1]: 0.150 to 0.3091 µM
- reduction in corneal concentrations versus equimolar Gel Drop ([2]; cyclodextrin-based solutions, 1 to 30 days dosing, Dutch-belted rabbits): ~10 ×
- clinical or histopathologic findings ([2]; ophthalmic solution, repeated topical ocular dosing, rabbits and dogs): free of untoward clinical or histopathologic findings
- target therapeutic exposure in the central choroid versus equimolar ophthalmic gel drop ([2]; ophthalmic solution, topical ocular dosing): equal or higher
- corneal concentrations, Gel Drop compared to Tris-based suspensions ([2]; rabbit, in vivo): fifty-fold to hundred-fold higher
- corneal concentrations, Gel Drop compared to cyclodextrin based solution ([2]; rabbit, in vivo): five-fold to fifteen-fold higher
- reduction of exposure (cornea) ([2]; suspension-based and cyclodextrin formulations): 10-100 ×
- IC50 [3]: 14.1 nM and 0.008 µg/mL
- Average Concentration, Central Choroid ([4]; Group 5a q.d., 1 hr after first daily dose on day 5, n = 1): *0.199 μM
- Average Concentration, Central Retina ([4]; Group 5b q.d., 24 hr after first daily dose on day 4): <LLOQ
- Average Concentration, Central Retina ([4]; Group 6b q.d., 24 hr after first daily dose on day 4): <LLOQ
- Average Concentration, Central Choroid ([4]; Group 6b q.d., 24 hr after first daily dose on day 4, n = 1): *0.218 μM
- Average Concentration, Central Choroid ([4]; Group 7 q.d., 1 hr after first daily dose on day 5, LLOQ = 0.174 μM): <LLOQ
- Average Concentration, Central Choroid ([4]; Group 8 q.d., 1 hr after first daily dose on day 5, n = 1): *0.210 μM
- Average Concentration, Central Choroid ([4]; Group 9 b.i.d., 1 hr after first daily dose on day 5, n = 1): *0.287 μM
- VEGFR-2 kinase function [5]: completely inhibited
- solubility provided (clinical dose strengths) ([6]; HP-β-CD (KLEPTOSE HPB) at equal to or more than 1:6 molar ratio): 0.1-1.0%
- solubility provided (clinical dose strengths) ([6]; SBE-β-CD (CAPTISOL) at equal to or more than 1:2 ratio): 0.1-1.0%
- Solubility ([6]; pH 7.5 (0.05M NaH2PO4)): 1000 µg/mL
- Solubility ([6]; pH 9.0 (0.05 m Na2HPO4)): 700 µg/mL
- concentration at 24 h ([7]; Dutch Belted, rabbit, cornea, topical, 30 μL bilateral, Group 2 q.d., 24 hr post day 5 morning dose): 29.7 µM
- Average Concentration, Peripheral Choroid ([7]; Group 1 q.d., 0.5 hr post day 1 dose, LLOQ = 0.0349 μM): <LLOQ
- Average Concentration, Central Retina ([7]; Group 1 q.d., 1 hr post day 1 dose, LLOQ = 0.0181 μM): <LLOQ
- Average Concentration, Peripheral Choroid ([7]; Group 1 q.d., 1 hr post day 1 dose, n = 1): *0.0856 μM
- Average Concentration, Central Retina ([7]; Group 1 q.d., 24 hr post day 1 dose, LLOQ = 0.0181 μM): <LLOQ
- concentration at 24 h ([7]; Group 1 q.d., 24 hr post day 1 dose, read-out: Average Concentration, Cornea): 6.94 µM
- Average Concentration, Aqueous Humor [7, 9]: 0.00996 µM
- Average Concentration, Peripheral Choroid [7, 9]: 0.737 µM
- Average Concentration, Central Choroid ([7]; Group 2 q.d., 1 hr post day 5 morning dose, n = 1): *0.207 μM
- concentration at 24 h ([7]; Group 2 q.d., 1 hr post day 5 morning dose, read-out: Average Concentration, Cornea): 112 µM
- Average Concentration, Aqueous Humor [7, 10]: 0.0165 µM
- Average Concentration, Peripheral Choroid [7, 10]: 0.687 µM
- Average Concentration, Central Choroid ([7]; Group 2 q.d., 8 hr post day 5 morning dose, n = 1): *0.237 μM
- concentration at 24 h ([7]; Group 2 q.d., 8 hr post day 5 morning dose, read-out: Average Concentration, Cornea): 32.7 µM
- Average Concentration, Aqueous Humor [7, 11]: 0.00336 µM
- Average Concentration, Peripheral Choroid [7, 11]: 1.14 µM
- Average Concentration, Peripheral Retina [7, 11]: 0.380 µM
- Average Concentration, Central Retina ([7]; Group 2 q.d., 24 hr post day 5 morning dose, LLOQ = 0.0181 μM): <LLOQ
- Average Concentration, Central Choroid ([7]; Group 2 q.d., 24 hr post day 5 morning dose, n = 1): *0.205 μM
- Average Concentration, Aqueous Humor [7, 12]: 0.0142 µM
- Average Concentration, Central Choroid [7, 12]: 0.255 µM
- concentration at 24 h ([7]; Group 3 b.i.d., 1 hr post day 5 morning dose, read-out: Average Concentration, Cornea): 151 µM
- Average Concentration, Aqueous Humor [7, 13]: 0.00774 µM
- Average Concentration, Peripheral Retina [7, 13]: 0.0597 µM
- concentration at 24 h ([7]; Group 3 b.i.d., 24 hr post day 5 morning dose, read-out: Average Concentration, Cornea): 82.1 µM
- Average Concentration, Aqueous Humor [7, 14]: 0.00996 µM
- Average Concentration, Central Retina [7, 14]: 0.0431 µM
- Average Concentration, Peripheral Choroid [7, 14]: 0.629 µM
- Average Concentration, Peripheral Retina [7, 14]: 0.0883 µM
- concentration at 24 h ([7]; Group 4 q.d., 1 hr post day 5 morning dose, read-out: Average Concentration, Cornea): 78.7 µM
- Average Concentration, Aqueous Humor ([7]; Group 5 q.d., 0.5 hr post day 1 dose, LLOQ = 0.000903 μM): <LLOQ
- Average Concentration, Central Retina ([7]; Group 5 q.d., 0.5 hr post day 1 dose, LLOQ = 0.0181 μM): <LLOQ
- Average Concentration, Peripheral Choroid ([7]; Group 5 q.d., 0.5 hr post day 1 dose, LLOQ = 0.0349 μM): <LLOQ
- concentration at 24 h ([7]; Group 5 q.d., 0.5 hr post day 1 dose, read-out: Average Concentration, Cornea): 21.0 µM
- Average Concentration, Peripheral Retina ([7]; Group 5 q.d., 1 hr post day 1 dose): 0.0253 µM
- Average Concentration, Peripheral Retina ([7]; Group 5 q.d., 2 hr post day 1 dose): 0.0253 µM
- concentration at 24 h ([7]; Group 5 q.d., 8 hr post day 1 dose, read-out: Average Concentration, Cornea): 7.74 µM
- Average Concentration, Aqueous Humor [7, 15]: 0.00228 µM
- Average Concentration, Peripheral Choroid [7, 15]: 0.116 µM
- Average Concentration, Central Retina ([7]; Group 5 q.d., 24 hr post day 1 dose, LLOQ = 0.0181 μM): <LLOQ
- Average Concentration, Peripheral Retina ([7]; Group 5 q.d., 24 hr post day 1 dose, n = 1): *0.0103 μM
- concentration at 24 h ([7]; Group 5 q.d., 24 hr post day 1 dose, read-out: Average Concentration, Cornea): 2.43 µM
- Average Concentration, Aqueous Humor [7, 16]: 0.00323 µM
- Average Concentration, Central Choroid [7, 16]: 0.319 µM
- Average Concentration, Central Retina [7, 16]: 0.0463 µM
- Average Concentration, Peripheral Choroid [7, 16]: 0.311 µM
- Average Concentration, Peripheral Retina [7, 16]: 0.0634 µM
- concentration at 24 h ([7]; Group 6 q.d., 1 hr post day 5 morning dose, read-out: Average Concentration, Cornea): 21.8 µM
- Average Concentration, Aqueous Humor [7, 17]: 0.00742 µM
- Average Concentration, Central Retina [7, 17]: 0.0537 µM
- Average Concentration, Peripheral Choroid [7, 17]: 0.257 µM
- concentration at 24 h ([7]; Group 6 q.d., 8 hr post day 5 morning dose, read-out: Average Concentration, Cornea): 9.10 µM
- Average Concentration, Aqueous Humor [7, 18]: 0.00122 µM
- Average Concentration, Peripheral Choroid [7, 18]: 0.343 µM
- Average Concentration, Peripheral Retina [7, 18]: 0.0533 µM
- concentration at 24 h ([7]; Group 6 q.d., 24 hr post day 5 morning dose, read-out: Average Concentration, Cornea): 2.33 µM
- Average Concentration, Aqueous Humor [7, 19]: 0.00648 µM
- Average Concentration, Central Choroid [7, 19]: 0.514 µM
- Average Concentration, Central Retina [7, 19]: 0.0469 µM
- Average Concentration, Peripheral Choroid [7, 19]: 0.744 µM
- Average Concentration, Peripheral Retina [7, 19]: 0.0819 µM
- Average Concentration, Aqueous Humor [7, 20]: *0.00205 μM
- Average Concentration, Central Choroid [7, 20]: *0.179 μM
- Average Concentration, Central Retina [7, 20]: *0.0185 μM
- eyes at microscopic evaluation ([8]; 0.3% w/v Tris-based suspension twice daily for 30 days): considered normal
- tolerability, clinical ophthalmic examinations ([8]; rabbit, in vivo): well tolerated
